Like-named read-outs stand apart in the source and are kept apart here.
Assays:
Alternaria brassicae = assay: In vivo preventive test on Alternaria brassicae (leaf spot on radish); conditions: 500 ppm; radish plants sprayed 24 hours before contamination; grading 5 days after contamination vs control plants
Procedure: Radish plants (“Pernod Clair” variety), sown in starter cups on a 50/50 peat soil-pozzolana substrate and grown at 17° C., are treated at the 2-leaf stage by spraying with the active ingredient prepared as described above. Plants, used as controls, are treated with the mixture of acetone/tween/DMSO/water not containing the active material. After 24 hours, the plants are contaminated by spraying the leaves with an aqueous suspension of Alternaria brassicae spores (50 000 spores per ml). The spores are collected from a 15-day-old culture. […] Grading (% of efficacy) is carried out 5 days after the contamination, in comparison with the control plants.

[1] = type: physicochemical
[2] = method [a]: HPLC/LC-MS on reversed phase at pH 2.7, 0.1% formic acid in water / acetonitrile, gradient 10% to 95% acetonitrile
[3] = method [a]: HPLC/LC-MS on reversed phase at pH 2.7, 0.1% formic acid in water / acetonitrile, linear gradient 10% to 95% acetonitrile
[4] = HPLC on reversed phase columns, method [a]: pH 2.7, 0.1% formic acid in water / acetonitrile, linear gradient 10% to 95% acetonitrile

SMILES: CCOCCCNC(=O)C1(CC2CC2)CC(c2ccc3ncc(Br)cc3c2)=NO1 (racemic) [compound 426]
- % of efficacy (protection) (Alternaria brassicae): 78%
- log P [1, 2]: 3.55[a]

SMILES: O=C(NC1CC1)C1(CC2CC2)CC(c2ccc3ncc(Br)cc3c2)=NO1 (racemic) [compound 427]
- % of efficacy (protection) (Alternaria brassicae): 83%
- log P [1, 2]: 3.20[a]

SMILES: CC1(C(=O)NCc2ccc(Oc3ccccc3)cc2)CC(c2ccc3ncc(Br)cc3c2)=NO1 (stereo not drawn) [compound 84]
- % of efficacy (protection) (Alternaria brassicae): 80%
- log P [1, 3]: 4.24^[a]

SMILES: CC1(C(=O)NCc2ccc(Cl)cc2Cl)CC(c2ccc3ncc(Br)cc3c2)=NO1 (stereo not drawn) [compound 95]
- % of efficacy (protection) (Alternaria brassicae): 70%
- log P [1, 3]: 4.16^[a]

SMILES: CC1(C(=O)NCc2ccnc(N3CCOCC3)c2)CC(c2ccc3ncc(Br)cc3c2)=NO1 (stereo not drawn) [compound 98]
- % of efficacy (protection) (Alternaria brassicae): 70%
- log P [1, 3]: 1.51^[a]

SMILES: CC1(C(=O)NCc2ccco2)CC(c2ccc3ncc(Br)cc3c2)=NO1 (stereo not drawn) [compound 161]
- % of efficacy (protection) (Alternaria brassicae): 75%
- log P [1, 3]: 2.82^[a]

SMILES: C#Cc1cnc2ccc(C3=NOC(C)(C(=O)NCc4ccc(C)o4)C3)cc2c1 (stereo not drawn) [compound 163]
- % of efficacy (protection) (Alternaria brassicae): 88%
- log P [1, 3]: 2.8^[a]

SMILES: C#Cc1cnc2ccc(C3=NOC(C)(C(=O)NCc4ccc(OC(F)(F)F)cc4)C3)cc2c1 (stereo not drawn) [compound 173]
- % of efficacy (protection) (Alternaria brassicae): 88%
- log P [1, 3]: 3.53^[a]

SMILES: C#Cc1cnc2ccc(C3=NOC(C)(C(=O)NCc4ccccc4Oc4ccccc4)C3)cc2c1 (stereo not drawn) [compound 187]
- % of efficacy (protection) (Alternaria brassicae): 88%
- log P [1, 3]: 3.89^[a]

SMILES: CC1(C(=O)NCc2cccc(OC(F)(F)F)c2)CC(c2ccc3ncc(Br)cc3c2)=NO1 (stereo not drawn) [compound 188]
- % of efficacy (protection) (Alternaria brassicae): 88%
- log P [1, 3]: 3.89^[a]

SMILES: C#Cc1cnc2ccc(C3=NOC(C)(C(=O)NCc4ccc5c(c4)OCCO5)C3)cc2c1 (stereo not drawn) [compound 208]
- % of efficacy (protection) (Alternaria brassicae): 88%
- log P [1, 3]: 2.71^[a]

SMILES: CC1(C(=O)NCC2(c3ccc(F)cc3)CC2)CC(c2ccc3ncc(Br)cc3c2)=NO1 (stereo not drawn) [compound 221]
- % of efficacy (protection) (Alternaria brassicae): 98%
- log P [1, 3]: 3.81^[a]

SMILES: C#Cc1cnc2ccc(C3=NOC(C)(C(=O)NCc4ccc5[nH]c(C)cc5c4)C3)cc2c1 (stereo not drawn) [compound 226]
- % of efficacy (protection) (Alternaria brassicae): 81%
- log P [1, 3]: 2.84^[a]

SMILES: CC1(C(=O)NCc2csc3ccc(Cl)cc23)CC(c2ccc3ncc(Br)cc3c2)=NO1 (stereo not drawn) [compound 241]
- % of efficacy (protection) (Alternaria brassicae): 81%
- log P [1, 4]: 4.21^[a]

SMILES: C#Cc1cnc2ccc(C3=NOC(C)(C(=O)NCc4csc5ccc(Cl)cc45)C3)cc2c1 (stereo not drawn) [compound 244]
- % of efficacy (protection) (Alternaria brassicae): 81%
- log P [1, 4]: 3.74^[a]

SMILES: C#Cc1cnc2ccc(C3=NOC(C)(C(=O)NCC4CCCCC4)C3)cc2c1 (stereo not drawn) [compound 246]
- % of efficacy (protection) (Alternaria brassicae): 75%
- log P [1, 4]: 3.55^[a]

SMILES: CC(C)NC(=O)C12OCCCC1C(c1ccc3ncc(Br)cc3c1)=NO2 (stereo not drawn) [compound 273]
- % of efficacy (protection) (Alternaria brassicae): 75%
- log P [1, 4]: 2.90[a]

SMILES: C#Cc1cc2cc(C3=NOC(C)(C(=O)NCc4cn(CC)nc4C)C3)ccc2nc1Cl (stereo not drawn) [compound 411]
- % of efficacy (protection) (Alternaria brassicae): 80%
- log P [1, 2]: 2.59[a]

SMILES: CCCOc1cnc2ccc(C3=NOC(C)(C(=O)NC(C)C)C3)cc2c1 (stereo not drawn) [compound 412]
- % of efficacy (protection) (Alternaria brassicae): 70%
- log P [1, 2]: 2.16[a]

SMILES: CCOC1(C(=O)NC(C)C)CC(c2ccc3ncc(Br)cc3c2)=NO1 (stereo not drawn) [compound 415]
- % of efficacy (protection) (Alternaria brassicae): 80%
- log P [1, 2]: 2.98[a]

SMILES: CC(C)NC(=O)C1(CC2CC2)CC(c2ccc3ncc(Br)cc3c2)=NO1 (stereo not drawn) [compound 422]
- % of efficacy (protection) (Alternaria brassicae): 72%
- log P [1, 2]: 3.60[a]
